Data set [1] addresses T1, 72 kDa type IV collagenase (Homo sapiens, UniProt P08253). Nature of the data set: Inhibition of MMP2 in HT1080 cells at 15 uM by gelatin zymography assay. Particulars: HT-1080. It counts as cell-based.
Target sequence in this assay (P08253 110-660 limits assumed): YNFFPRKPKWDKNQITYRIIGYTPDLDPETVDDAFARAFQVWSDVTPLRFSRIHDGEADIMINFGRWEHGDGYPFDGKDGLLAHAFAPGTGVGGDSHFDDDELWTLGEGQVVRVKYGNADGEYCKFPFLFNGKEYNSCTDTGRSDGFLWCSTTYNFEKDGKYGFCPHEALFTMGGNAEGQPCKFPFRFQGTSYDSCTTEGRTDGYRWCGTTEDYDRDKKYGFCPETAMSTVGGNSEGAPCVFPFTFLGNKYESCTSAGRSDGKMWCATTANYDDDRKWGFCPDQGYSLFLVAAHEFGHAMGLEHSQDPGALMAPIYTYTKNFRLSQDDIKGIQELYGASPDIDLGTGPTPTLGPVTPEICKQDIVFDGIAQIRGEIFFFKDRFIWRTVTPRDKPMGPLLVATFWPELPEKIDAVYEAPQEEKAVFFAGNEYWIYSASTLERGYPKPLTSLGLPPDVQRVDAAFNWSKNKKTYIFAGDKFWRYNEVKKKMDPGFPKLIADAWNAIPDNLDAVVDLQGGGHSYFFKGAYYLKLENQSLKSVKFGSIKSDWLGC
The test system of data set [2] is HT-1080. Description: Inhibition of invasion of HT1080 cells at 20 uM after 24 hrs by Matrigel invasion assay relative to control. The format is functional. Particulars: Homo sapiens, HT-1080, 24 h.
In data set [3] the test system is HT-1080. Nature of the data set: Reduction of MMP2 protein expression in HT1080 cells at 20 uM ny Western blot. It counts as functional, Homo sapiens. Details: scale not given: the % may be the effect or the level left.
Data set [4] relates to HFF. Description: Effect on growth of HFF cells after 48 hrs by WST1 reduction assay. The format is cell-based. The following applies: human.
In data set [5] the test system is HT-1080. Nature of the data set: Inhibition of migration of HT1080 cells at 20 uM by wound healing assay. It counts as functional, cell-based. Particulars: Homo sapiens.
The test system of data set [6] is HCT-116. Nature of the data set: Growth inhibition of HCT116 cells up to 50 uM after 48 hrs by WST1 reduction assay. The format is functional, cell-based. Particulars: Homo sapiens.
Data set [7] addresses T1, 72 kDa type IV collagenase. Description: Inhibition of MMP2 expressed in insect cells.
Target sequence in this assay (P08253 whole entry): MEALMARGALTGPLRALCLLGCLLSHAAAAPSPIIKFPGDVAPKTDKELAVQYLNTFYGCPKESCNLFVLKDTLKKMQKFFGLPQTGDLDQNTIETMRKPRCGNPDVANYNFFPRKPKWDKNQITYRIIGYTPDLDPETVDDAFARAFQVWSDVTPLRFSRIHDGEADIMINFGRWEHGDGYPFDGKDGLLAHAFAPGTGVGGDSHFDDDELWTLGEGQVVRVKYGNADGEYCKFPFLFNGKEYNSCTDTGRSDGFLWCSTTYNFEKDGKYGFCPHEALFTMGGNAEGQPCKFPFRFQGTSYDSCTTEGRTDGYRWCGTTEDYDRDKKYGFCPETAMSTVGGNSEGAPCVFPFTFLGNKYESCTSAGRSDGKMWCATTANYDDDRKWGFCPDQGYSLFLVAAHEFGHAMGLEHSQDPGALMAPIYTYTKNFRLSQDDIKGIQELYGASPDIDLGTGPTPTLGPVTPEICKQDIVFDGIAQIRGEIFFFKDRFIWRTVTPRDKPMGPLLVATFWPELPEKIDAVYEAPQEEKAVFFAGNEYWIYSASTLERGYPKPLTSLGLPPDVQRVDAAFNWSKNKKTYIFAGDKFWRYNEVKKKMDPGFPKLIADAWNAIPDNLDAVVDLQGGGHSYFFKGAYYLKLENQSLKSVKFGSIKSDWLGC
The test system of data set [8] is HT-1080. Description: Reduction of MMP2 mRNA expression in HT1080 cells at 20 uM by RT-PCR. More on the design: scale not given: the % may be the effect or the level left. It counts as functional, Homo sapiens.

For one molecule, Activity, inhibition and IC50 results are on record in ChEMBL document CHEMBL1147993, “Inhibitory effect of obovatal on the migration and invasion of HT1080 cells via the inhibition of MMP-2” (Bioorg Med Chem, 2007).

SMILES strings stand for the structures. Activity calls are given as the source filed them. The rule behind the calls is not given here.

Take `C=CCc1ccc(Oc2cc(/C=C/C=O)cc(O)c2O)cc1` [OBOVATAL]: the outcome in data set [1], in data set [5] and in data set [6] was Active. The molecule further yielded an inhibition at 20 µM in data set [2] of 70%. In addition, the Activity in data set [3] is given as 70%; in data set [4] it was “Non-toxic”; in data set [8], 70%. Further, the IC50 in data set [7] was found to be 800 nM.
